US11547686B2 (priority 2017, dated 2023)
≈ marks a conversion by molar mass, not a printed value. Like-named read-outs stand apart in the source and are kept apart here. Marks after values point to notes of the source that are not given here.

Assays:
in vivo = conditions: for AUC(0-inf) / Cmax: rat, in vivo, iv
Experimental: The active ingredients were dissolved in 0.9% saline (20 mL) to achieve the desired concentration. The saline and vial constituents were mixed with by gentle swirling until a clear solution was obtained. The obtained clear solution was filtered through a sterile 0.45 μm PVDF membrane syringe filter and then used for further studies.
(§1) Blood samples were collected over a 24 h period, at which time the rats were exsanguinated, and the blood was collected for clinical pathology evaluation (chemistry, hematology, and coagulation). Finally, all the animals were necropsied (all exterior and interior cavities and organs were examined), and the site of infusion in the jugular vein, lung, liver, and kidney underwent histopathologic evaluation.

[1] = system: red blood cells (dog whole unclotted blood); test: In vitro hemolysis test, dog blood; conditions: 15 min at 37° C.
[2] = system: red blood cells (mouse whole unclotted blood); test: In vitro hemolysis test, mouse blood; conditions: 15 min at 37° C.
[3] = system: red blood cells (human whole unclotted blood); test: In vitro hemolysis test, human blood; conditions: 15 min at 37° C.
[4] = system: red blood cells (rat whole unclotted blood); test: In vitro hemolysis test, rat blood; conditions: 15 min at 37° C.
[5] = Solubility of pregabalin and acetaminophen in water at different pH values (HPLC-UV); conditions: for solubility: thermodynamic from solid
Experimental: The pH was then adjusted to the required range. The concentration of the active ingredients was determined by HPLC-UV.

[6] = rats, 15 min IV infusion
Experimental: as §1

[7] = Necropsy and histopathologic evaluation after intravenous infusion in rats; conditions: n = 6 per group
Experimental: as §1

[8] = system: somatic pain in a rat model; test: Hot plate test (somatic pain); assay type: in vivo, Sprague-Dawley rats; conditions: rats; morphine 3 mg/kg s.c.; combination 50 mg/kg APAP; 40 mg/kg pregabalin IV infusion
Experimental: Hot Plate Test: The hot plate test is a test that can be used to assess pain sensitivity in rodents. […] In the test, an animal is placed in a confined cylindrical space to restrict locomotion. The floor surface of the space is maintained at a temperature sufficiently hot to elicit an aversive response, but not so hot that tissue damage is induced, typically 50-56° C. The animal is monitored, and latency to paw licking or jumping is recorded. This test can be used to screen novel drugs or drug combinations for effects on pain detection threshold; substances with an analgesic effect can increase latency to licking/jumping, while substances with a hyperalgesic effect can decrease latency.
The effect on somatic pain was tested in groups of 8 Male Sprague-Dawley rats.
Vehicle and test agents were administered by intravenous infusion (IV-CI) over 15 minutes starting 30 minutes before Time 0 (15 minutes post infusion). Morphine was used as a positive control, and was administered (3 mg/kg) by subcutaneous administration 60 minutes before Time 0. […] The pain threshold of the rats was assessed based on the time (seconds) required to elicit a paw withdrawal response (latency).
The data were analyzed by a one-way ANOVA followed by Dunnett's test for comparison between vehicle control and test article/positive control groups.

## CC(=O)Nc1ccc(O)cc1 [Acetaminophen, N-(4-hydroxyphenyl)acetamide]
In vivo; 17 mg/kg, AUC0-∞ of acetaminophen
  AUC(0-inf): 11500 ng·h/mL
In vivo; 17 mg/kg, Cmax of acetaminophen
  Cmax: 18600 ng/mL
In vivo; 17 mg/kg, Equivalence (80%-125%) range of acetaminophen AUC0-∞
  AUC(0-inf): 9190 to 14400 ng·h/mL
In vivo; 17 mg/kg, Equivalence (80%-125%) range of acetaminophen Cmax
  Cmax: 14900 to 23300 ng/mL
In vivo; rats, 15 min IV infusion
  Effect of the presence or absence of pregabalin on the pharmacokinetics of acetaminophen: did not affect
[1]; APAP 5 mg/mL
  % Hemolysis: 0%
[1]; APAP 7.5 mg/mL
  % Hemolysis: 0%
[1]; APAP 10 mg/mL
  % Hemolysis: 0%
[2]; APAP 5 mg/mL
  % Hemolysis: 5%
[2]; APAP 7.5 mg/mL
  % Hemolysis: 5%
[2]; APAP 10 mg/mL
  % Hemolysis: 4%
[3]; APAP 5 mg/mL
  % Hemolysis: 2%
[3]; APAP 7.5 mg/mL
  % Hemolysis: 0%
[3]; APAP 10 mg/mL
  % Hemolysis: 6%
[4]; APAP 5 mg/mL
  % Hemolysis: 6%
[4]; APAP 7.5 mg/mL
  % Hemolysis: 0%
[4]; APAP 10 mg/mL
  % Hemolysis: 2%
[5]; pH 4, aqueous buffer, Solubility of acetaminophen, water, pH 4, co-dissolved with pregabalin
  solubility: ~21 mg/mL (≈ 139 mM)
[5]; pH 5, aqueous buffer, Solubility of acetaminophen, water, pH 5, co-dissolved with pregabalin
  solubility: 18.7 mg/mL (≈ 124 mM)
[5]; pH 6, aqueous buffer, Solubility of acetaminophen, water, pH 6, co-dissolved with pregabalin
  solubility: 17.9 mg/mL (≈ 118 mM)
[5]; pH 7, aqueous buffer, Solubility of acetaminophen, water, pH 7, co-dissolved with pregabalin
  solubility: 17.9 mg/mL (≈ 118 mM)
[5]; pH range from 4-7, acetaminophen alone
  Difference in the solubility of acetaminophen: no significant difference
[5]; water, pH 4, co-dissolved with pregabalin
  Solubility of acetaminophen: 20.8 mg/mL

## CC(C)C[C@H](CN)CC(=O)O [Pregabalin, (3S)-3-(Aminomethyl)-5-methylhexanoic acid]
In vivo; 1.25 mg/kg, AUC0-∞ of pregabalin, rats, 15 min IV infusion, Pregabalin 1.25 mg/kg
  AUC(0-inf): 6750 ng·h/mL
In vivo; 1.25 mg/kg, Cmax of pregabalin, rats, 15 min IV infusion, Pregabalin 1.25 mg/kg
  Cmax: 2060 ng/mL
In vivo; 1.25 mg/kg, Equivalence (80%-125%) range of pregabalin AUC0-∞, rats, Pregabalin 1.25 mg/kg alone as reference
  AUC(0-inf): 5400 to 8440 ng·h/mL
In vivo; 1.25 mg/kg, Equivalence (80%-125%) range of pregabalin Cmax, rats, Pregabalin 1.25 mg/kg alone as reference
  Cmax: 1650 to 2580 ng/mL
In vivo; 5 mg/kg, AUC0-∞ of pregabalin, rats, 15 min IV infusion, Pregabalin 5 mg/kg
  AUC(0-inf): 26100 ng·h/mL
In vivo; 5 mg/kg, Cmax of pregabalin, rats, 15 min IV infusion, Pregabalin 5 mg/kg
  Cmax: 7910 ng/mL
In vivo; 5 mg/kg, Equivalence (80%-125%) range of pregabalin AUC0-∞, rats, Pregabalin 5 mg/kg alone as reference
  AUC(0-inf): 20900 to 32700 ng·h/mL
In vivo; 5 mg/kg, Equivalence (80%-125%) range of pregabalin Cmax, rats, Pregabalin 5 mg/kg alone as reference
  Cmax: 6330 to 9880 ng/mL
In vivo; rats, 15 min IV infusion
  Change in the pharmacokinetic profile of pregabalin in the presence or absence of acetaminophen: No change
[6]; PGB 1.25 mg/kg
  ALBGLOB (albumin/globulin ratio, calculated): 1.4
  ALP (alkaline phosphatase): 99 U/L
  ALT (alanine aminotransferase): 45 U/L
  APPT (Activated partial thromboplastin time): 12.9 s
  AST (aspartate aminotransferase): 93 ** U/L
  Albumin: 4.0 g/dL
  Basophils: 80 µL⁻¹
  Bilirubin: 0.02 mg/dL
  Calcium: 11.4 mg/dL
  Chloride: 102 mEq/L
  Cholesterol: 94 mg/dL
  Creatinine: 0.47 mg/dL
  Eosinophils: 280 µL⁻¹
  GLOBUL (globulin, calculated): 2.8 g/dL
  Glucose: 166 mg/dL
  Hematocrit: 44.2%
  Hemoglobin: 14.2 g/dL
  LGLUCLE (large unstained cell): 100 µL⁻¹
  Lymphocytes: 9400 µL⁻¹
  MCH (mean cell hemoglobin): 17.8 pg
  MCHC (mean cell hemoglobin concentration): 32 g/dL
  MCV (mean cell volume): 55.8 fL
  Monocytes: 500 µL⁻¹
  Neutrophils: 1400 µL⁻¹
  PHOS (inorganic phosphorus): 10.6 mg/dL
  Platelets: 908000 µL⁻¹
  Potassium: 7.3 mEq/L
  Protein: 6.7 g/dL
  Prothrombin time: 16.8 s
  RBC: 7.93e+06 µL⁻¹
  Reticulocytes: 4.11 * %
  Sodium: 148 * mEq/L
  Triglycerides: 33 mg/dL
  UREAN (blood urea nitrogen): 19 mg/dL
  WBC: 11740 µL⁻¹
[6]; PGB 5 mg/kg
  ALBGLOB (albumin/globulin ratio, calculated): 1.4
  ALP (alkaline phosphatase): 97 U/L
  ALT (alanine aminotransferase): 51 U/L
  APPT (Activated partial thromboplastin time): 12.4 s
  AST (aspartate aminotransferase): 107 U/L
  Albumin: 3.9 g/dL
  Basophils: 80 µL⁻¹
  Bilirubin: 0.02 mg/dL
  Calcium: 11.5 mg/dL
  Chloride: 101 mEq/L
  Cholesterol: 93 mg/dL
  Creatinine: 0.44 mg/dL
  Eosinophils: 350 µL⁻¹
  GLOBUL (globulin, calculated): 2.8 g/dL
  Glucose: 150 mg/dL
  Hematocrit: 45.1%
  Hemoglobin: 14.4 g/dL
  LGLUCLE (large unstained cell): 80 µL⁻¹
  Lymphocytes: 10810 µL⁻¹
  MCH (mean cell hemoglobin): 18.3 pg
  MCHC (mean cell hemoglobin concentration): 32.1 g/dL
  MCV (mean cell volume): 57.1 fL
  Monocytes: 450 µL⁻¹
  Neutrophils: 1520 µL⁻¹
  PHOS (inorganic phosphorus): 10 ** mg/dL
  Platelets: 933000 µL⁻¹
  Potassium: 6.9 * mEq/L
  Protein: 6.7 g/dL
  Prothrombin time: 16.6 s
  RBC: 7.9e+06 µL⁻¹
  Reticulocytes: 4.7%
  Sodium: 147 mEq/L
  Triglycerides: 30 mg/dL
  UREAN (blood urea nitrogen): 19 mg/dL
  WBC: 13280 µL⁻¹
[1]; PGB 0.75 mg/mL
  % Hemolysis: 0%
[1]; PGB 1.5 mg/mL
  % Hemolysis: 0%
[1]; PGB 3 mg/mL
  % Hemolysis: 1%
[2]; PGB 0.75 mg/mL
  % Hemolysis: 0%
[2]; PGB 1.5 mg/mL
  % Hemolysis: 4%
[2]; PGB 3 mg/mL
  % Hemolysis: 0%
[7]; PGB 1.25 mg/kg
  Necropsy Observation: Lung Discolored: 1
  Necropsy Observation: Lung Focus: 1
[7]; PGB 5 mg/kg
  Necropsy Observation: Lung Discolored: 0
  Necropsy Observation: Lung Focus: 2
[3]; PGB 0.75 mg/mL
  % Hemolysis: 0%
[3]; PGB 1.5 mg/mL
  % Hemolysis: 7%
[3]; PGB 3 mg/mL
  % Hemolysis: 1%
[4]; PGB 0.75 mg/mL
  % Hemolysis: 2%
[4]; PGB 1.5 mg/mL
  % Hemolysis: 0%
[4]; PGB 3 mg/mL
  % Hemolysis: 2%
[5]; aqueous buffer, Solubility of pregabalin, water, pH range of 5-7, pregabalin alone
  solubility: ~31 mg/mL (≈ 195 mM)
[5]; pH 4, aqueous buffer, Solubility of pregabalin, water, pH 4, co-dissolved with acetaminophen
  solubility: 54.4 mg/mL (≈ 342 mM)
[5]; pH 4, aqueous buffer, Solubility of pregabalin, water, room temperature, pH 4, pregabalin alone
  solubility: 54.4 mg/mL (≈ 342 mM)
[5]; pH 5, aqueous buffer, Solubility of pregabalin, water, pH 5, co-dissolved with acetaminophen
  solubility: 36.8 mg/mL (≈ 231 mM)
[5]; pH 5, aqueous buffer, Solubility of pregabalin, water, room temperature, pH 5, pregabalin alone
  solubility: 32.4 mg/mL (≈ 203 mM)
[5]; pH 6, aqueous buffer, Solubility of pregabalin, water, pH 6, co-dissolved with acetaminophen
  solubility: 35 mg/mL (≈ 220 mM)
[5]; pH 6, aqueous buffer, Solubility of pregabalin, water, room temperature, pH 6, pregabalin alone
  solubility: 31 mg/mL (≈ 195 mM)
[5]; pH 7, aqueous buffer, Solubility of pregabalin, water, pH 7, co-dissolved with acetaminophen
  solubility: 35 mg/mL (≈ 220 mM)
[5]; pH 7, aqueous buffer, Solubility of pregabalin, water, room temperature, pH 7, pregabalin alone
  solubility: 30.6 mg/mL (≈ 192 mM)
[5]; pH range of 5-7, versus pregabalin alone
  Change in the solubility of pregabalin in the presence of acetaminophen: increase

## CN1CC[C@]23c4c5ccc(O)c4O[C@H]2[C@@H](O)C=C[C@H]3[C@H]1C5 [morphine]
[8]
  Onset of the analgesic effect: near immediate
